Calls of active or inactive are those of the source. No cut-off for these calls is given here.
Columns and labels:
[1] = Half life in human liver microsomes at 2 uM by LC-MS/MS analysis; type: ADME, microsome
Staphylococcus aureus [2] = experiment: Growth inhibition of Staphylococcus aureus Newman at 0.2 mM incubated overnight measured at 30 mins interval; type: organism-based; conditions: 0.5 h, 200 µM
Staphylococcus aureus [3] = experiment: Antibacterial activity against vancomycin-intermediate Staphylococcus aureus Mu50 infected in BALB/c mouse assessed as reduction of bacterial burden in liver at 0.1 mg, ip bid administered at 12 hrs prior to bacterial infection dosed at 12 intervals for 4.5 days; type: functional, organism-based

CN(C/C=C/C=C/c1ccc(C(F)(F)F)cc1)Cc1ccc2c(c1)OCCO2.Cl
half-life at 2 µM [1]: 7.9 min | growth inhibition (GI) (Staphylococcus aureus [2]): Non-Toxic | Activity (Staphylococcus aureus [3]): Active

From ChEMBL document CHEMBL4251700, “Novel Staphyloxanthin Inhibitors with Improved Potency against Multidrug Resistant Staphylococcus aureus” (ACS Med Chem Lett, 2018)
